Structures are written as SMILES. Values after ≈ are worked out from the molar mass of the structure shown. “Also recorded” adds a separate entry of the source. Where two headings read alike, the source gives them in different places. Positions of bridges follow the written chain, without caps; N, C: chain ends. Non-standard residues stand in square brackets, D forms with d. Residues, ends and D or L forms follow the SMILES beside them. *: point of attachment. Hexanoyl(3R-OH,5-Me) = CC(C)C[C@@H](O)CC(=O)*; dNMeF = CN[C@H](Cc1ccccc1)C(=O)O

One data set relates to Listeria monocytogenes. It counts as cell-based.
Data set [1] in a line: acute toxicity test to a mouse. It counts as in vivo. The method, then: Further, the RH2180-5 Peak 5 Substance was injected hypodermically to the mouse to study acute toxicity of the RH2180-5 Peak 5 Substance to the mouse by observation one day after the administration.
The subject of another data set is Candida tropicalis pK233. It counts as cell-based.
The test system of data set [2] is Staphylococcus aureus (MSSA1). An excerpt: (§1) Antibacterial activity of the antibiotic-substance-containing fraction at each fractionation stage from a culture produced from RH2180-5 and that of the antibiotic substance obtained therefrom by separation and purification thereof can be evaluated by MIC. […] For example, it is done with a broth microdilution method based on CLSI (formerly NCCLS: National Committee for Clinical Laboratory Standards).
Antibacterial spectrum of the RH2180-5 Peak 5 Substance to various bacteria including MRSA and VRE was studied. In addition, influence of chemical resistance was also studied. For study of the latter, Staphylococcus aureus and Enterococcus faecalis were selected, wherein measurement of MIC value of each peak substance was made by a broth microdilution method based on CLSI (formerly NCCLS: National Committee for Clinical Laboratory Standards) as to Staphylococcus aureus not showing resistance to a chemical (hereinafter abbreviated as “MSSA 1”) and two kinds of MRSA showing resistance to many chemicals including methicillin (MRSA 3 and MRSA 4; see Table 3 for resistive chemicals) for Staphylococcus aureus; and as to Enterococcus faecalis not showing resistance to a chemical (hereinafter abbreviated as “EF 1”) and showing resistance to vancomycin (hereinafter abbreviated as “VRE”) for Enterococcus faecalis.
Test microorganisms of Staphylococcus aureus and Enterococcus faecalis, the same as Test Example 1, were selected; and measurement of MIC value of each peak substance was made by a broth microdilution method based on CLSI (formerly NCCLS: National Committee for Clinical Laboratory Standards) as to MSSA 1 and EF 1, and MRSA 3, MRSA 4, and VRE, the same as Test Example 1.
Antibacterial spectrum of the foregoing RH2180-5 Peak 5 Substance to various microorganisms including MRSA and VRE was studied. Each MIC value for the case added with 10% blood serum and for the case not added with the same was measured by a broth microdilution method based on CLSI (formerly NCCLS: National Committee for Clinical Laboratory Standards).

Data set [3] deals with Cryptococcus neoformans H99. It counts as cell-based.
Data set [4] relates to Staphylococcus aureus. The data set is described as follows: survived cell numbers (CFU) of Staphylococcus aureus after drug addition. Format: cell-based. Particulars: 25 μg/ml. The method, then: To CA-Mueller Hinton Broth medium were taken 1.8×10^8 Staphylococcus aureus, and then the foregoing RH2180-5 Peak 5 Substance (25 μg/mL), vancomycin (VM, 5 μg/mL), and gentamicin (GM, 2.5 μg/mL) were added thereinto; and then, survived cell numbers after 15 minutes, 30 minutes, 60 minutes, and 120 minutes were obtained as CFU (colony forming unit/mL).

A further data set concerns Salmonella enterica.
From the text: as §1
Antibacterial spectrum of the RH2180-5 Peak 5 Substance to various bacteria including MRSA and VRE was studied. In addition, influence of chemical resistance was also studied. For study of the latter, Staphylococcus aureus and Enterococcus faecalis were selected, wherein measurement of MIC value of each peak substance was made by a broth microdilution method based on CLSI (formerly NCCLS: National Committee for Clinical Laboratory Standards) as to Staphylococcus aureus not showing resistance to a chemical (hereinafter abbreviated as “MSSA 1”) and two kinds of MRSA showing resistance to many chemicals including methicillin (MRSA 3 and MRSA 4; see Table 3 for resistive chemicals) for Staphylococcus aureus; and as to Enterococcus faecalis not showing resistance to a chemical (hereinafter abbreviated as “EF 1”) and showing resistance to vancomycin (hereinafter abbreviated as “VRE”) for Enterococcus faecalis. […]

In data set [5] the test system is Staphylococcus aureus. The data set is described as follows: silkworm Staphylococcus aureus infection model (therapeutic effect). It counts as in vivo, silkworm (larva of Bombyx mori). Particulars: purification stages, Table 2. An excerpt:
In the present invention too, a first screening to narrow down effective strains from several tens of thousands of extraordinary large numbers of strains may be done by any method as far as the antibacterial activity can be evaluated with the said method; and thus, for example, by referring to MIC, test bodies showing the antibacterial activity to Staphylococcus aureus in culture supernatant of each strain may be picked up. This is because strains not showing the antibacterial activity at all are not in the scope of examination. Any method capable of evaluating the antibacterial activity may be used; but a method with which a strain recognized to show, with referring to MIC, the antibacterial activity to Staphylococcus aureus in culture supernatant of various test strains is picked up is preferable. […]
Strains recognized to show the therapeutic effect in the silkworm Staphylococcus aureus infection model are further subjected to various separation and purification treatments wherein the therapeutic effect is evaluated in each operation by using the silkworm Staphylococcus aureus infection model. […]

Data set [6] has as its system Smith strain of Staphylococcus aureus. Kind of data set: mouse Staphylococcus aureus infection model (therapeutic effect). Format: in vivo, mouse (ICR female). The method, then: Smith strain of Staphylococcus aureus was suspended in 7% mucin+0.2 mM ferric ammonium citrate, and 6.2×10^6 (20×LD50) thereof was administered into the peritoneal cavity of 5 mice per group (ICR female of four weeks of age). Each drug was injected hypodermically 2 hours after administration of the bacterium by the method shown below.
Similarly, ED50 of vancomycin to the mouse model used this time was studied. […] Here, ED50 values were obtained by the probit method.

The test system of the next data set is Streptococcus pyogenes. Format: cell-based.
In data set [7] the test system is Staphylococcus aureus. Kind of data set: bacteriolytic activity, absorbance at 600 nm (OD600). Format: cell-based. Particulars: concentration five times that of Test Example 1, 37° C., compared with vancomycin and daptomycin, FIG. 11. The method, then:
Staphylococcus aureus was diluted in CA-Mueller Hinton Broth medium; and then, the RH2180-5 Peak 5 Substance, vancomycin, and daptomycin were added thereinto with the concentrations thereof being five times as much as those of Test Example 1; and then, the microorganism was cultured at 37° C. By using an absorption spectrometer (manufactured by Shimadzu Corp.), absorbance at 600 nm (OD600) after their addition was followed with passage of time.

With `CC[C@H](C)[C@@H]1NC(=O)[C@@H](Cc2c[nH]c3ccccc23)NC(=O)[C@@H](CCC(N)=O)NC(=O)[C@H](CCC(=O)O)NC(=O)[C@@H](CCCNC(=N)N)NC(=O)[C@H](CC(C)C)NC(=O)[C@@H](Cc2ccccc2)N(C)C(=O)CNC(=O)[C@H](CO)NC(=O)[C@@H](CCCNC(=N)N)NC(=O)[C@@H](NC(=O)C[C@H](O)CC(C)C)[C@@H](C)OC(=O)[C@H]([C@@H](C)O)NC1=O` [Peak P5] ({Hexanoyl(3R-OH,5-Me)}-T[dR]SG[dNMeF]L[dR]E[dQ][dW]IT; ester 1-C), the MIC with Listeria monocytogenes is 6.3 µg/mL (≈ 3.89 µM); with Candida tropicalis pK233 it was greater than 100 µg/mL; in data set [2] (Table 3, Staphylococcus aureus (MSSA1), resistance-showing chemicals: Non), 5 µg/mL (≈ 3.09 µM); in data set [2] (Table 4, MSSA1), 6.3 µg/mL (≈ 3.89 µM); in data set [2] (Table 6, with 10% serum, Methicillin susceptible S. aureus MSSA1 (clinical isolate)), 1.5 µg/mL (≈ 0.927 µM); in data set [2] (Table 6, without serum, Methicillin susceptible S. aureus MSSA1 (clinical isolate)) it was 3.1 µg/mL (≈ 1.92 µM). For the same compound, the MIC is greater than 100 µg/mL in data set [3]; greater than 100 µg/mL against Salmonella enterica (Table 3, Salmonella enteria); greater than 100 µg/mL against Salmonella enterica (Table 6, without serum, Salmonella enterica); 50 µg/mL (≈ 30.9 µM) against Streptococcus pyogenes. Also, in data set [1] (injected hypodermically, up to 50 mg/kg, observation one day after the administration, listed as RH2180-5 Peak 5 Substance), the “acute toxicity to the mouse” value is on record as “mouse was not killed; also recorded: no toxicity observed”. The “highest dose without toxicity (50 mg/kg) relative to ED50” value in [1] (mouse, hypodermic) worked out at 80 folds. Besides, the Solubility to solvents entry (chloroform) is given as “Insoluble”; the Solubility to solvents result (water, ethanol, methanol, and acetonitrile) is “Soluble”. In addition, the “CFU/ml of S. aureus” value with Staphylococcus aureus [4] (15 minutes, start 1.8 × 10^8) was <1 × 10^4 CFU/ml; with Staphylococcus aureus [4] (30 minutes), <1 × 10^4 CFU/ml; in the data set with Staphylococcus aureus [4] (60 minutes), <1 × 10^4 CFU/ml; in the data set on Staphylococcus aureus [4] (120 minutes), <1 × 10^4 CFU/ml. Also, the ED50 in the data set on Staphylococcus aureus [5] came to 0.3 μg/g-larva; in data set [6] (mouse, S. aureus Smith 6.2 × 10^6 (20 × LD50) intraperitoneal, drug injected hypodermically 2 hours later, survival one day after, probit method), 0.6 mg/kg. In addition, the “survival in the mouse Staphylococcus aureus infection model” value in [6] (25 mg/kg hypodermically, no survival with PBS administration, 5 mice per group) is recorded as “survival of totality of mice”. The “ED50 value relative to vancomycin” value in data set [6] (mouse Staphylococcus aureus infection model) is given as “about one third”. Also, in the data set with Staphylococcus aureus [7], the “bacteriolytic activity (decrease of absorbance OD600)” value is listed as “shows the bacteriolytic activity”.

The record behind these values is US8754040B2, “Cyclic peptide compound, method for producing same, anti-infective agent, antibiotic-containing fraction, antibiotic, method for producing antibiotic, antibiotic-producing microorganism, and antibiotic produced by same” (priority 2010, dated 2014).
